{"source": "patent US8952024B2", "about": "“Herbicidal pyrimidone derivatives” (E I du Pont de Nemours and Company, priority 2009, dated 2015)", "assay_type_in_all_cases": "in vivo", "key": {"[1]": {"test_system": "morningglory (Ipomoea spp.)", "assay": "Test A pre-/postemergence plant response", "procedure,_shortened": "(§1)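 Visual injury rating on a 0–100 scale (0 = no effect, 100 = complete control) was made versus untreated controls after about ten days in the greenhouse. Compounds, formulated in a non-phytotoxic solvent mix containing surfactant, were sprayed preemergence onto loam/sand soil and postemergence onto one- to two-leaf plants.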"}, "[2]": {"test_system": "barnyardgrass (Echinochloa crus-galli)", "assay": "Test A pre-/postemergence plant response", "procedure,_shortened": "as §1"}, "[3]": {"test_system": "large crabgrass (Digitaria sanguinalis)", "assay": "Test A pre-/postemergence plant response", "procedure,_shortened": "as §1"}, "[4]": {"test_system": "giant foxtail (Setaria faberii)", "assay": "Test A pre-/postemergence plant response", "procedure,_shortened": "as §1"}, "corn (Zea mays)": {"test_system": "corn (Zea mays)", "assay": "Test A pre-/postemergence plant response", "procedure,_shortened": "as §1"}, "[5]": {"test_system": "velvetleaf (Abutilon theophrasti)", "assay": "Test A pre-/postemergence plant response", "procedure,_shortened": "as §1"}, "[6]": {"test_system": "wheat (Triticum aestivum)", "assay": "Test A pre-/postemergence plant response", "procedure,_shortened": "as §1"}, "[7]": {"test_system": "pigweed (Amaranthus retroflexus)", "assay": "Test A pre-/postemergence plant response", "procedure,_shortened": "as §1"}, "[8]": {"test_system": "barnyardgrass (Echinochloa crus-galli)", "assay": "Test B flooded paddy test", "details": "for Plant response rating, Barnyardgrass: Flood (flooded paddy test), 13 to 15 days", "procedure,_shortened": "(§2)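 Post-flood paddy application: compounds are introduced into water 3 cm deep over the soil, reaching plants at the 2-leaf stage. The water level is maintained, and after 13–15 days under greenhouse conditions, response is judged by eye relative to controls, where 100 means complete control.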"}, "rice (Oryza sativa)": {"test_system": "rice (Oryza sativa)", "assay": "Test B flooded paddy test", "details": "for Plant response rating, Rice: Flood (flooded paddy test), 13 to 15 days", "procedure,_shortened": "as §2"}, "[9]": {"test_system": "ducksalad (Heteranthera limosa)", "assay": "Test B flooded paddy test", "details": "for Plant response rating, Ducksalad: Flood (flooded paddy test), 13 to 15 days", "procedure,_shortened": "as §2"}, "[10]": {"test_system": "umbrella sedge (Cyperus difformis)", "assay": "Test B flooded paddy test", "details": "for Plant response rating, Sedge, Umbrella: Flood (flooded paddy test), 13 to 15 days", "procedure,_shortened": "as §2"}, "[11]": {"details": "Postemergence, 125 g ai/ha, 0 to 100 scale where 0 is no effect and 100 is complete control"}, "[12]": {"details": "Postemergence, 500 g ai/ha, visual injury, 0 to 100 scale (0 no effect, 100 complete control), approx. ten days"}, "[13]": {"details": "Preemergence, 125 g ai/ha, 0 to 100 scale, 0 = no effect, 100 = complete control"}, "[14]": {"details": "Preemergence, 500 g ai/ha, 0 to 100 scale, 0 = no effect, 100 = complete control"}, "[15]": {"details": "250 g ai/ha, flooded paddy test, visual rating on 0 to 100 scale (0 no effect, 100 complete control) after 13 to 15 days"}, "[16]": {"details": "62 g ai/ha, scale of 0 to 100 where 0 is no effect and 100 is complete control"}, "[17]": {"details": "125 g ai/ha, scale 0 to 100, 0 is no effect, 100 is complete control"}, "[18]": {"details": "Flood, 31 g ai/ha, scale 0 to 100 (0 no effect, 100 complete control)"}}}
{"compound": "CCc1ccc(-n2c(-c3cc(F)cc(F)c3)ncc(C(=O)C3=C(O)CCCC3=O)c2=O)cc1", "note": "[Compound 158]", "values": [{"measurement": "Plant response rating, Morningglory", "setting": "[1]; [11]", "value": 70}, {"measurement": "Morningglory plant response rating", "setting": "[1]; [12]", "value": 100}, {"measurement": "Plant response rating, Morningglory", "setting": "[1]; [13]", "value": 0}, {"measurement": "Plant response rating, Morningglory", "setting": "[1]; [14]", "value": 80}, {"measurement": "Plant response rating, Barnyardgrass", "setting": "[2]; [11]", "value": 90}, {"measurement": "Barnyardgrass plant response rating", "setting": "[2]; [12]", "value": 90}, {"measurement": "Plant response rating, Barnyardgrass", "setting": "[2]; [13]", "value": 20}, {"measurement": "Plant response rating, Barnyardgrass", "setting": "[2]; [14]", "value": 80}, {"measurement": "Plant response rating, Crabgrass, Large", "setting": "[3]; [11]", "value": 70}, {"measurement": "Crabgrass, Large plant response rating", "setting": "[3]; [12]", "value": 100}, {"measurement": "Plant response rating, Crabgrass, Large", "setting": "[3]; [13]", "value": 70}, {"measurement": "Plant response rating, Crabgrass, Large", "setting": "[3]; [14]", "value": 100}, {"measurement": "Plant response rating, Foxtail, Giant", "setting": "[4]; [11]", "value": 70}, {"measurement": "Foxtail, Giant plant response rating", "setting": "[4]; [12]", "value": 90}, {"measurement": "Plant response rating, Foxtail, Giant", "setting": "[4]; [13]", "value": 10}, {"measurement": "Plant response rating, Foxtail, Giant", "setting": "[4]; [14]", "value": 80}, {"measurement": "Plant response rating, Corn", "setting": "corn (Zea mays); [11]", "value": 10}, {"measurement": "Corn plant response rating", "setting": "corn (Zea mays); [12]", "value": 50}, {"measurement": "Plant response rating, Corn", "setting": "corn (Zea mays); [13]", "value": 0}, {"measurement": "Plant response rating, Corn", "setting": "corn (Zea mays); [14]", "value": 20}, {"measurement": "Plant response rating, Velvetleaf", "setting": "[5]; [11]", "value": 100}, {"measurement": "Velvetleaf plant response rating", "setting": "[5]; [12]", "value": 100}, {"measurement": "Plant response rating, Velvetleaf", "setting": "[5]; [13]", "value": 50}, {"measurement": "Plant response rating, Velvetleaf", "setting": "[5]; [14]", "value": 80}, {"measurement": "Plant response rating, Wheat", "setting": "[6]; [11]", "value": 0}, {"measurement": "Wheat plant response rating", "setting": "[6]; [12]", "value": 50}, {"measurement": "Plant response rating, Wheat", "setting": "[6]; [13]", "value": 0}, {"measurement": "Plant response rating, Wheat", "setting": "[6]; [14]", "value": 10}, {"measurement": "Plant response rating, Pigweed", "setting": "[7]; [11]", "value": 100}, {"measurement": "Pigweed plant response rating", "setting": "[7]; [12]", "value": 100}, {"measurement": "Plant response rating, Pigweed", "setting": "[7]; [13]", "value": 100}, {"measurement": "Plant response rating, Pigweed", "setting": "[7]; [14]", "value": 100}, {"measurement": "Plant response rating, Flood, Barnyardgrass", "setting": "[8]; [15]", "value": 60}, {"measurement": "Plant response rating, Barnyardgrass", "setting": "[8]; [16]", "value": 20}, {"measurement": "Plant response rating, Barnyardgrass", "setting": "[8]; [17]", "value": 20}, {"measurement": "Barnyardgrass plant response rating", "setting": "[8]; [18]", "value": 20}, {"measurement": "Plant response rating, Flood, Rice", "setting": "rice (Oryza sativa); [15]", "value": 85}, {"measurement": "Plant response rating, Rice", "setting": "rice (Oryza sativa); [16]", "value": 30}, {"measurement": "Plant response rating, Rice", "setting": "rice (Oryza sativa); [17]", "value": 40}, {"measurement": "Rice plant response rating", "setting": "rice (Oryza sativa); [18]", "value": 20}, {"measurement": "Plant response rating, Flood, Ducksalad", "setting": "[9]; [15]", "value": 100}, {"measurement": "Plant response rating, Ducksalad", "setting": "[9]; [16]", "value": 75}, {"measurement": "Plant response rating, Ducksalad", "setting": "[9]; [17]", "value": 100}, {"measurement": "Ducksalad plant response rating", "setting": "[9]; [18]", "value": 50}, {"measurement": "Plant response rating, Flood, Sedge, Umbrella", "setting": "[10]; [15]", "value": 100}, {"measurement": "Plant response rating, Sedge, Umbrella", "setting": "[10]; [16]", "value": 85}, {"measurement": "Plant response rating, Sedge, Umbrella", "setting": "[10]; [17]", "value": 100}, {"measurement": "Sedge, Umbrella plant response rating", "setting": "[10]; [18]", "value": 70}]}
